Experiments:
[1] = test system: rhabdomyosarcoma (RD) cells; assay: Assay for inhibition of cell proliferation (MTT), rhabdomyosarcoma cells; type: cell-based, human; details: for IC50: rhabdomyosarcoma (RD) cells, MTT, 96 h incubation; for RD Ratio (paclitaxel/compound): ratio of paclitaxel IC50 to compound IC50, RD cells
Description: (§1) Human rabdomyosarcoma (RD) and mouse neuroblastoma (N1E115) cell lines were obtained from the American Type Culture Collection (ATCC, Rockville, Md.). The RD cells were grown in Dulbecco's modified eagle medium (DMEM) supplemented with 4 mM glutamine, containing 10% fetal bovine serum (ATCC #30-2020) and supplemented with 1% penicillin and 1% streptomycin. When confluent, the cells were maintained by passage (about once per week) until needed. The N1E115 line was also cultured in DMEM with 4 mM glutamine containing 10% newborn calf serum (Gibco, Grand Island, N.Y.) and likewise maintained.
(§2) The proliferation of rhabdomyosarcoma cells was determined using a cell proliferation assay kit based on the formation of insoluble formazan crystals from 3-(4,5-dimethylthiazol-2-yl)-2,5-diphenyltetrazolium bromide (MTT). The rhabdomyosarcoma cells were cultured to a density of 10^5 cells per mL. The cell culture (100 μL) was dispensed into wells of a 96-well plate to 10^4 cells per well. The plate was incubated at 37° C. for 3 h until the cells firmly attached to the well surfaces.
(§3) A second 96-well round bottom plate was made up containing the test compounds, serially diluted to cover the concentration range of interest using the DMEM medium plus antibiotics. The final concentration of DMSO in which the compounds were initially dissolved was maintained at a constant 0.5% in each well and the volume of the compounds in the plate was 220 μL. Following the 3 h incubation the medium was removed from the plate containing the cells and replaced with 200 μL of the solutions containing the compounds. The cells were incubated for a further 96 h before the assessment of growth inhibition using MTT.
(§4) The cells were left bathing in 100 μL of the saline solution to which was added 100 μL of MTT in saline (12 mM). Incubation was continued for 4 h at 37° C. to produce the blue formazan color which was quantified by optical density measurements at 570 nm. Background correction of all test wells was performed by subtraction of the yellow MTT solution color measured at 570 nm in cell-free wells. The data were normalized to solvent only control wells.

[2] = test system: neuroblastoma (N1E115) cells; assay: Assay for inhibition of cell proliferation (MTT), neuroblastoma cells; type: cell-based, mouse; details: for IC50: neuroblastoma (N1E115) cells, MTT; for N1E115 Ratio (paclitaxel/compound): ratio of paclitaxel IC50 to compound IC50, N1E115 cells
Description: as §1, §2, §3, §4

SMILES | IC50 ([1]; Homo sapiens) [nM] | IC50 ([2]; Mus musculus, N1E-115) [nM] | IC50 [1] [nM] | IC50 [2] [nM] | RD Ratio (paclitaxel/compound) [1] | N1E115 Ratio (paclitaxel/compound) [2]
CC(C)Cn1c(-c2c(F)cccc2F)c(Cl)nc(-n2cccn2)c1=O [Compound 1, 5-Chloro-6-(2,6-difluorophenyl)-1-(2-methylpropyl)-3-(1H-pyrazol-1-yl)-2(1H)-pyrazinone] | 500 | 110 |  |  | 0.03 | 0.80
CC(C)Cn1c(-c2c(F)cccc2F)c(Cl)nc(-n2cncn2)c1=O [Compound 3] |  |  | 3010 | 790 | 0.01 | 0.11
CCCCn1c(-c2c(F)cc(F)cc2F)c(Cl)nc(-c2ccccn2)c1=O [Compound 240] |  |  | 1670 | 59 | 0.01 | 1.49
O=c1c(-n2cccn2)nc(Cl)c(-c2c(F)cccc2F)n1Cc1ccc(F)cc1 [Compound 272] |  |  | 70 | 70 | 0.24 | 1.26
O=c1c(-n2cccn2)nc(Cl)c(-c2c(F)cc(F)cc2F)n1-c1cccc(F)c1 [Compound 324] |  |  | 50 | 147 | 0.34 | 0.60
CCC(C)Cn1c(-c2c(F)cc(F)cc2F)c(Cl)nc(C(N)=O)c1=O (stereo not drawn) [Compound 415] |  |  | 40 | 60 | 0.43 | 1.47
O=c1c(-n2cccn2)nc(Cl)c(-c2c(F)cc(F)cc2F)n1CC1CC1 [Compound 460] |  |  | 90 | 170 | 0.19 | 0.52
CN(C)CCCOc1cc(F)c(-c2c(Cl)nc(-n3cccn3)c(=O)n2CC2CC2)c(F)c1 [Compound 481, 5-chloro-1-cyclopropylmethyl-6-[4-[3-(dimethylamino)propoxy]-2,6-difluorophenyl]-3-(1H-pyrazol-1-yl)-2(1H)-pyrazinone] | 3.2 | 30 |  |  | 5.37 | 2.93
CC[C@H](C)Cn1c(-c2c(F)cc(OCCN(C)C)cc2F)c(Cl)nc(C(N)=O)c1=O [Compound 484] |  |  | 10 | 285 | 1.70 | 0.31
CC(Cn1c(-c2c(F)cc(OCCCN(C)C)cc2F)c(Cl)nc(-n2cccn2)c1=O)C(F)(F)F (stereo not drawn) [Compound 485, 5-chloro-6-[4-[3-(dimethylamino)propoxy]-2,6-difluorophenyl]-3-(1H-pyrazol-1-yl)-1-(3,3,3-trifluoro-2-methylpropyl)-2(1H)-pyrazinone] | 27.5 | 151 |  |  | 0.62 | 0.58
CN(C)CCCOc1cc(F)c(-c2c(Cl)nc(-n3cccn3)c(=O)n2-c2cccc(F)c2)c(F)c1 [Compound 491] |  |  | 28.5 | 22 | 0.60 | 4.00
CNCCCOc1cc(F)c(-c2c(Cl)nc(-n3cccn3)c(=O)n2-c2cccc(F)c2)c(F)c1.Cl [Compound 492] |  |  | 3.3 | 16 | 5.15 | 5.50
CC[C@H](C)Cn1c(-c2c(F)cc(OCCCNC)cc2F)c(Cl)nc(-n2ccc(C)n2)c1=O [Compound 494, 5-chloro-6-[2,6-difluoro-4-[3-(methylamino)propoxy]phenyl]-1-[(2S)-2-methylbutyl]-3-(3-methyl-1H-pyrazol-1-yl)-2(1H)-pyrazinone] | 0.4 | 1.3 |  |  | 42.50 | 67.69
CC(C)Cn1c(-c2c(F)cc(OCCCN(C)C)cc2F)c(Cl)nc(-n2cccn2)c1=O [Compound 495] |  |  | 35 | 353 | 0.49 | 0.25
CNCCCOc1cc(F)c(-c2c(Cl)nc(-n3ccc(C)n3)c(=O)n2CC(C)C)c(F)c1 [Compound 496] |  |  | 43 | 90 | 0.40 | 0.98
Cc1ccn(-c2nc(Cl)c(-c3c(F)cc(OCCCN(C)C)cc3F)n(CC(C)C)c2=O)n1 [Compound 497] |  |  | 77 | 180 | 0.22 | 0.49
CC[C@H](C)Cn1c(-c2c(F)cc(OCCCN(C)C)cc2F)c(Cl)nc(-n2ccc(C)n2)c1=O [Compound 498, 5-chloro-6-[4-[3-(dimethylamino)propoxy]-2,6-difluorophenyl]-1-[(2S)-2-methylbutyl]-3-(3-methyl-1H-pyrazol-1-yl)-2(1H)-pyrazinone] | 3.8 | 14 |  |  | 4.47 | 6.29
CNCCCOc1cc(F)c(-c2c(Cl)nc(-n3cccn3)c(=O)n2CC(C)C)c(F)c1.Cl [Compound 500] |  |  | 2 | 16 | 8.50 | 5.50
CC[C@H](C)Cn1c(-c2c(F)cc(OC(C)=O)cc2F)c(Cl)nc(-n2cccn2)c1=O [Compound 501] |  |  | 57 | 62 | 0.30 | 1.42
CC[C@H](C)Cn1c(-c2c(F)cc(O)cc2F)c(Cl)nc(-n2cccn2)c1=O [Compound 503] |  |  | 114 | 256 | 0.15 | 0.34

Further lines, with some results ahead:

IC50 ([1]; Homo sapiens) [nM] | IC50 ([2]; Mus musculus, N1E-115) [nM] | IC50 [1] [nM] | IC50 [2] [nM] | SMILES | RD Ratio (paclitaxel/compound) [1] | N1E115 Ratio (paclitaxel/compound) [2]
 |  | 50 | 80 | CC[C@H](C)Cn1c(-c2ccc(F)cc2Cl)c(Cl)nc(-n2cccn2)c1=O [Compound 263] | 0.34 | 1.10
1.1 | 39 |  |  | CC[C@H](C)Cn1c(-c2c(F)cc(OC)cc2F)c(Cl)nc(-n2cccn2)c1=O [Compound 457, 5-Chloro-1-[(2S)-2-methylbutyl)-3-(1H-pyrazol-1-yl)-6-(2,6-difluoro-4-methoxyphenyl)-2(1H)-pyrazinone] | 15.45 | 2.26
 |  | 262 | 462 | CCC(C)Cn1c(-c2ccc(OCCN(C)C)cc2F)c(Cl)nc(-n2cccn2)c1=O (stereo not drawn) [Compound 477] | 0.06 | 0.19
 |  | 470 | 1090 | CCC(C)Cn1c(-c2ccc(OCCN3CCCC3)cc2F)c(Cl)nc(-n2cccn2)c1=O (stereo not drawn) [Compound 478] | 0.04 | 0.08
200 | 25 |  |  | CCC(C)Cn1c(-c2c(F)cc(OCCN(C)C)cc2F)c(Cl)nc(-n2cccn2)c1=O (stereo not drawn) [Compound 479, 5-Chloro-6-[4-[2-(dimethylamino)ethoxy]-2,6-difluorophenyl]-1-(2-methylbutyl)-3-(1H-pyrazol-1-yl)-2(1H)-pyrazinone] | 0.09 | 3.52
 |  | 463 | 393 | CCC(C)Cn1c(-c2c(F)cc(OCCN3CCCC3)cc2F)c(Cl)nc(-n2cccn2)c1=O (stereo not drawn) [Compound 480] | 0.04 | 0.22
1.5 | 2.6 |  |  | CC[C@H](C)Cn1c(-c2c(F)cc(OCCCN(C)C)cc2F)c(Cl)nc(-n2cccn2)c1=O [Compound 482, 5-chloro-6-[4-[3-(dimethylamino)propoxy]-2,6-difluorophenyl]-1-[(2S)-2-methylbutyl]-3-(1H-pyrazol-1-yl)-2(1H)-pyrazinone] | 11.33 | 33.85
 |  | 39.7 | 81 | CC[C@H](C)Cn1c(-c2c(F)cc(OCCN(C)C)cc2F)c(Cl)nc(-n2cccn2)c1=O [Compound 483] | 0.43 | 1.09
0.6 | 4.5 |  |  | CC[C@H](C)Cn1c(-c2c(F)cc(OCCCNC)cc2Cl)c(Cl)nc(-n2cccn2)c1=O [Compound 493, 5-chloro-6-[2-chloro-6-fluoro-4-[3-(methylamino)propoxy]phenyl]-1-[(2S)-2-methylbutyl]-3-(1H-pyrazol-1-yl)-2(1H)-pyrazinone] | 28.33 | 19.56
 |  | 10 | 12 | CC[C@H](C)Cn1c(-c2c(F)cc(OCCCN(C)C(C)=O)cc2F)c(Cl)nc(-n2cccn2)c1=O [Compound 499] | 1.70 | 7.33
